From patent publication US20240342167A1, “INHIBITORS OF PORCINE REPRODUCTIVE AND RESPIRATORY SYNDROME VIRUS” (University of Connecticut, priority 2023, published 2024)
pKd: −log10 of the molar value. Entries after “also recorded” stand apart in the source; their conditions may differ.

Key:
[1] = biological target: T1, PPI between PRRSV glycoprotein GP2a and CD163-SRCR5 (Sus scrofa, UniProt Q2VL90); experiment: BiFC assay GP2a/SRCR5; format: cell-based, porcine CD163; PRRSV VR2332; conditions: 5 μM; for Average GP2a (relative fluorescence intensity, SRCR5/GP2a BiFC): HEK293T, 24 h after transfection, relative to NC (DMSO) = 1.00, n=3
T1 construct: SRCR5 domain of porcine CD163 receptor was amplified from cDNA of pig cells; expressed in transfected cells; host or cells: HEK293T
Protocol: (§1) HEK293T cells were cultivated in 6-well plates in FP medium and transfected with 1 μg XpBiFC-VN155 (I152L)-SRCR5 and 1 μg pBiFC-VC155-GP2/GP4 using Fugene6. After 4 h, cells were digested with 0.05% Typsin-EDTA (ThermoFisher Scientific, MA, USA)) and passaged to 48-well plates which were coated with EmbryoMax 0.1% Gelatin Solution (Sigma-Aldrich, MO, USA) and preloaded with 5 μM B7 analogues. Fluorescence images were taken at 24 h after transfection and fluorescence intensity was measured by image J.

[2] = biological target: T2, PPI between PRRSV GP4 and CD163-SRCR5 domain (Sus scrofa, UniProt Q2VL90); experiment: BiFC assay GP4/SRCR5; format: cell-based, porcine CD163; PRRSV VR2332; conditions: for Average GP4 (relative fluorescence intensity, SRCR5/GP4 BiFC): 5 μM, HEK293T, 24 h after transfection, relative to NC (DMSO), n=3
T2 construct: SRCR5 domain of porcine CD163 receptor was amplified from cDNA of pig cells; expressed in transfected cells; host or cells: HEK293T
Protocol: as §1

[3] = tested on: PRRSV strains NADC30, VR-2332 and Lelystad; experiment: PRRSV infection assay in PAMs, qRT-PCR for PRRSV; format: cell-based; conditions: for inhibitory effect against PRRSV infection (in words): 15 μM, PAMs, qRT-PCR; for antiviral potency, SAR comparison (in words): qRT-PCR and titration in infected PAMs, compared with B7, B7-A4 or G7
Protocol: PAMs were cultivated in 12-well plates and infected with PRRSV NADC30 strain or Lelystad strain at MOI=0.05 for 1 h. Cells were then incubated with 15 μM B7 analogues for 24 h at 37° C. RNAs were extracted from the PAMs for quantitative reverse transcription-PCR (qRT-PCR) using RNeasy Mini Kits (Qiagen, MD, USA) and supernatants of cells were collected PRRSV titration assay.
RNAs isolated from infected PAMs were reversely transcribed to cDNA using iScript™ cDNA Synthesis Kit (Bio-Rad Laboratories, CA, USA). Specific qRT-PCR primers for ORF7 gene of PRRSV NADC30 and Lelystad strains, and for porcine GAPDH are shown in the Table S2 qRT-PCR reaction was conducted with SYBR Green Supermix (Bimake, TX, USA) using the ABI 7500 Fast Platform (Thermo Fisher Scientific, MA, USA). GAPDH served as the house keeping gene for normalization.

[4] = biological target: T3, GFP-fusion CD163-SRCR5 (GFP-fused SRCR5 domain of porcine CD163, recombinant, expressed in E. coli BL21 (DE3)) (Sus scrofa, UniProt Q2VL90); experiment: Microscale thermophoresis (MST) assay: direct association of compounds with purified GFP-fused CD163-SRCR5; format: binding; conditions: Monolith NT.115, blue channel, values represent Mean, N=3
T3 construct: GFP and GFP-SRCR2 as controls
Protocol: The amino acids within the LBP and loop 5-6 regions are underlined. […] B7 was placed in position 1 (Boxes) to show the potential disturbing of both conformations. […] B7 was placed in position 2 (Box) to show the potential disturbing of this conformation. […] Values represent Mean, N=3. […] Values represent Mean, N=3. […] Values represent Mean, N=3.
All chemicals (dissolved in 10 mM in DMSO) were designed and provided by Atomwise, Inc. (CA, USA). Compounds were further diluted in PBS (137 mM NaCl, 2.7 mM KCl, 8 mM Na2HPO4, and 2 mM KH2PO4, pH 7.4, Gibco, MA, USA) to 200 μM as the working solution. Pulmonary alveolar macrophages (PAMs) were harvested from healthy 4-6-month Landrace/Yorkshire pigs. Briefly, pig lungs were removed from euthanized pigs during necropsy and transferred on ice to the lab. 200 mL warm PBS with 200 U/mL penicillin and 200 μg/mL streptomycin was injected into trachea and reached major bronchi of both sides of the lungs. Lungs were then massaged and bronchoalveolar lavage fluid (BALF) was collected. PAMs were harvested from the BALF by centrifugation at 400×g for 15 min and washed in PBS twice. Fresh PAMs were counted and frozen in 90% FBS and 10% DMSO (Sigma-Aldrich, MO) in liquid nitrogen. PAMs were cultivated in RPMI-1640 (Gibco, MA) supplemented with 10% FBS, 2 mM Glutamax, 0.1 mM MEM Non-Essential Amino Acids, 1 mM sodium pyruvate, 100 U/mL penicillin and 100 μg/mL streptomycin, and 0.5 μg/mL Amphotericin B. SRCR5 domain of porcine CD163 receptor was amplified from cDNA of pig cells and inserted into pBiFC-VN155 (I152L). PRRSV GP2a and GP4 were amplified from reverse-transcribed genome of PRRSV VR2332 strain and cloned into pBiFC-VC155 vector as previously described (Huang et al., Virol J 17, 116, 2020). Porcine CD163 was cloned into pMXs vector (Cell Biolabs, CA, USA). For protein purification, […] were cloned into pET28b-GFP (Addgene, MA, USA).
The recombinant pET28b-GFP-SRCR2/SRCR5 constructs were transformed into Escherichia coli strain BL21 (DE3) (New England Biolabs, MA, USA). The transformed clones were cultured at 37° C. in LB broth with […] kanamycin, induced by adding 1 mM isopropyl β-D-1-thiogalactopyranoside at optical density of 0.6-0.8, and then incubated at 37° C. for 3 h. For protein purification, cells were pelleted and resuspended in xTractor Buffer containing DNAse I, lysozyme solution, and Protease Inhibitor Cocktail (Takara Bio USA, Inc., CA). The suspension was sonicated and centrifuged. […]
The purified GFP, GFP-fused SRCR2 or SRCR5 proteins were mixed with serially diluted compounds. The mixtures were loaded to capillaries and the affinity was measured by Monolith NT.115 (NanoTemper Technologies, Inc., CA, USA) at corresponding MST power with the blue channel. […]

T2 sequence (Q2VL90 477-577): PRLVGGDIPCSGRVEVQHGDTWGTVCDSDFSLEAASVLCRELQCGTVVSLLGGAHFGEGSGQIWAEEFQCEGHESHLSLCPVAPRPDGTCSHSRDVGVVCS
T3 sequence (Q2VL90 477-577 limits assumed): as the sequence (Q2VL90 477-577) above
T1 sequence (Q2VL90 477-577): as above

Compound	Average GP2a (relative fluorescence intensity, SRCR5/GP2a BiFC) [1]	Average GP4 (relative fluorescence intensity, SRCR5/GP4 BiFC) [2]	inhibitory effect against PRRSV infection (in words) [3]	antiviral potency, SAR comparison (in words) [3]	pKd [4]	inhibition of the PPI between SRCR5-VN and GP2a-VC at pH 6.0 (in words) ([1]; pH 6.0)	interference with the PPI between GP4/SRCR5 (in words) [2]
COc1ccc(Nc2nc3ccccc3nc2NS(=O)(=O)c2ccc(F)cc2C)cc1 [A1]	0.63	0.89					
COc1ccc(Nc2nc3ccccc3nc2NS(=O)(=O)c2ccc(F)cc2C)cc1Cl [A3]	0.06	0.43	mild	significantly increased antiviral effect			
Cc1ccc(S(=O)(=O)Nc2nc3ccccc3nc2Nc2cccc(S(=O)(=O)N3CCCC3)c2)cc1 [A7]	0.07	0.53	strong	significant drop of its antiviral potency			
O=S(=O)(Nc1nc2ccccc2nc1Nc1cccc(S(=O)(=O)N2CCCC2)c1)c1ccccc1 [C6]	0.19	0.34	mild				
Cc1cccc(S(=O)(=O)Nc2nc3ccccc3nc2Nc2cccc(F)c2)c1 [C10]	0.33	0.63					
Cc1ccc(S(=O)(=O)Nc2nc3ccccc3nc2Nc2cccc(S(=O)(=O)N3CCCCC3)c2)cc1 [Compound B7-A4]					4.64		
COc1ccc(NS(=O)(=O)c2cccc(Nc3nc4ccccc4nc3NS(=O)(=O)c3ccc(F)cc3C)c2)cc1 [Compound E3]					3.48		
Cc1cccc(S(=O)(=O)Nc2nc3ccccc3nc2Nc2cccc(S(=O)(=O)N3CCCCC3)c2)c1 [Compound E10]					4.42		
COc1ccccc1NS(=O)(=O)c1cccc(Nc2nc3ccccc3nc2NS(=O)(=O)c2ccc(F)cc2C)c1 [Compound F9]					4.61		
Cc1ccccc1S(=O)(=O)Nc1nc2ccccc2nc1Nc1ccc(S(=O)(=O)N2CCOCC2)cc1 [D2]	0.07	0.23		mildly but significantly decreased			
COc1ccc(NS(=O)(=O)c2cccc(Nc3nc4ccccc4nc3NS(=O)(=O)c3ccc(F)cc3C)c2)cc1 [E3]	0.10	0.59	low activity	near complete loss of antiviral-potency			
Cc1cc(F)ccc1S(=O)(=O)Nc1nc2ccccc2nc1Nc1cccc(Cl)c1C [E4]	0.12	0.74					
Cc1cc(F)ccc1S(=O)(=O)Nc1nc2ccccc2nc1Nc1cccc(Cl)c1 [E7]	0.10	0.69					
Cc1cccc(S(=O)(=O)Nc2nc3ccccc3nc2Nc2cccc(S(=O)(=O)N3CCCCC3)c2)c1 [E10]	0.06	0.06		no change in antiviral potency			
Cc1ccccc1Nc1nc2ccccc2nc1NS(=O)(=O)c1ccc(F)cc1C [F7]	0.30	0.96					
COc1ccccc1NS(=O)(=O)c1cccc(Nc2nc3ccccc3nc2NS(=O)(=O)c2ccc(F)cc2C)c1 [F9]	0.03	0.07		did not change at all			
Cc1cc(F)ccc1S(=O)(=O)Nc1nc2ccccc2nc1Nc1cccc(Cl)c1Cl [F12]	0.31	0.63	strong	significantly increased antiviral effect; also recorded: antiviral potency nearly identical to B7		inhibit the PPI	does not effectively interfere
O=S(=O)(Nc1nc2ccccc2nc1Nc1cccc(S(=O)(=O)N2CCCCC2)c1)c1ccccc1 [G4]	0.04	0.06		significantly decreased its antiviral potency			
Cc1cc(F)ccc1S(=O)(=O)Nc1nc2ccccc2nc1Nc1ccccc1 [G7]	0.15	0.71		much lower antiviral effect compared with B7; also recorded: obvious loss of the antiviral activity compared with B7			
O=S(=O)(Nc1nc2ccccc2nc1Nc1ccc(Cl)c(S(=O)(=O)N2CCOCC2)c1)c1ccccc1 [G10]	0.13	0.80		mildly but significantly decreased			
Cc1ccc(Nc2nc3ccccc3nc2NS(=O)(=O)c2ccc(F)cc2C)cc1 [H1]	0.24	0.94					
